Measured values published in ChEMBL document CHEMBL1914362, “Highlights of marine invertebrate-derived biosynthetic products: their biomedical potential and possible production by microbial associants” (Bioorg Med Chem, 2011).

Legend:
[1] = system: HT-29; assay: Cytotoxicity against human HT-29 cells; format: functional, cell-based
[2] = system: HCT-116; assay: Cytotoxicity against human HCT116 cells; format: functional, cell-based
[3] = Irreversible inhibition of 20S proteasome

| Structure (SMILES) | IC50 [1] [nM] | further results |
| --- | --- | --- |
| C=CC(C)(C)c1[nH]cnc1/C=C1\NC(=O)[C@H](Cc2ccccc2)NC1=O | 440 |  |
| C[C@@]12OC(=O)[C@]1([C@@H](O)[C@@H]1C=CCCC1)NC(=O)[C@@H]2CCCl [MARIZOMIB] |  | IC50 [2]: 35 nM |
| CC(C)[C@H](O)[C@@]12NC(=O)[C@H](C)[C@@H]1OC2=O [OMURALIDE] |  | IC50 [3]: 49 nM |
| CC(C)(C)c1[nH]cnc1/C=c1\[nH]c(=O)/c(=C/c2ccccc2)[nH]c1=O [PLINABULIN] | 18 |  |
